# Biological target: human PDE4D catalytic domain (Homo sapiens (Human), UniProt Q08499)
# Test: PDE4 Assay (TR-FRET, FAM-cAMP cleavage)
# Format: biochemical
# Conditions: Table 16, Examples 277-296; read-out: PDE4 IC50 range
# Method in brief: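 Readout is Tb-to-FAM time-resolved FRET after nanoparticle capture of AMP, the product of cleaving a cAMP/FAM-cAMP mixture by PDE4D catalytic domain (S380-L740) in the presence of titrated compound. Values are IC50 ranges in nM: concentration halving substrate cleavage relative to controls.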
# human PDE4D catalytic domain, sequence (Q08499 380-740): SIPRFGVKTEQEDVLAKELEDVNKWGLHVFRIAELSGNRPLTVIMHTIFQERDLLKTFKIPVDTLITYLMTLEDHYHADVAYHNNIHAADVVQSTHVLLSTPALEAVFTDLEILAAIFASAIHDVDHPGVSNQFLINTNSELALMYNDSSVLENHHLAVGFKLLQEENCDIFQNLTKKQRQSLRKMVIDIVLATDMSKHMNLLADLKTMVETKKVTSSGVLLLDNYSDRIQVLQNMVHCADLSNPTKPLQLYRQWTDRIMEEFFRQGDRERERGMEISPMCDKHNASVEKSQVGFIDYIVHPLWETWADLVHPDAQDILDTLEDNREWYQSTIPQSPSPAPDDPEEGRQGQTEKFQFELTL
row,Compound,IC50 [nM]
1,"CCn1nc(C[C@@H](C)COC(=O)c2cc(C)n(C)n2)c2c1C(=O)NCC1(CCOCC1)C2 [Example 289, [(2R)-3-(1-ethyl-8-oxo-spiro[6,7-dihydro-4H-pyrazolo[3,4-c]azepine-5,4′-tetrahydropyran]-3-yl)-2-methyl-propyl] 1,5-dimethylpyrazole-3-carboxylate]",< 100
2,"CCn1nc(C[C@@H](C)COC(=O)c2cnc(C)nc2)c2c1C(=O)NCC1(CCOCC1)C2 [Example 288, [(2R)-3-(1-ethyl-8-oxo-spiro[6,7-dihydro-4H-pyrazolo[3,4-c]azepine-5,4′-tetrahydropyran]-3-yl)-2-methyl-propyl] 2-methylpyrimidine-5-carboxylate]",< 100

# Same assay, conditions: human PDE4D catalytic domain (UniProt Q08499 [S380-L740]); 50% inhibition of substrate cleavage; read-out: PDE4 IC50 range
row,Compound,IC50 [nM]
1,"CCn1nc(CC(C)(C)COC(=O)c2cccc(S(=O)(=O)C(C)C)c2)c2c1C(=O)NCC1(CCOCC1)C2 [Example 206, [3-(1-ethyl-8-oxo-spiro[6,7-dihydro-4H-pyrazolo[3,4-c]azepine-5,4′-tetrahydropyran]-3-yl)-2,2-dimethyl-propyl] 3-isopropylsulfonylbenzoate]",< 100
2,"CCn1nc(CCCOC(=O)c2ccc(C)cc2Cl)c2c1C(=O)NCC1(CCOCC1)C2 [Example 42, 3-(1-ethyl-8-oxo-spiro[6,7-dihydro-4H-pyrazolo[3,4-c]azepine-5,4′-tetrahydropyran]-3-yl)propyl 2-chloro-4-methyl-benzoate]",< 100
3,"CCn1nc(CC(C)(C)COC(=O)c2ccc(C(=O)N3CCN(C)CC3)cc2)c2c1C(=O)NCC1(CCOCC1)C2 [Example 224, [3-(1-ethyl-8-oxo-spiro[6,7-dihydro-4H-pyrazolo[3,4-c]azepine-5,4′-tetrahydro-pyran]-3-yl)-2,2-dimethyl-propyl] 4-(4-methyl-piperazine-1-carbonyl)-benzoate]",< 100
4,"CCn1nc(C[C@@H](C)COC(=O)c2ccccc2F)c2c1C(=O)NCC1(CCOCC1)C2 [Example 144, [(2R)-3-(1-ethyl-8-oxo-spiro[6,7-dihydro-4H-pyrazolo[3,4-c]azepine-5,4′-tetrahydropyran]-3-yl)-2-methyl-propyl] 2-fluorobenzoate]",< 100
5,"CCn1nc(CCCOC(=O)c2cc(Cl)ccc2OC)c2c1C(=O)NCC1(CCOCC1)C2 [Example 60, 3-(1-ethyl-8-oxo-spiro[6,7-dihydro-4H-pyrazolo[3,4-c]azepine-5,4′-tetrahydropyran]-3-yl)propyl 5-chloro-2-methoxy-benzoate]",< 100
6,"CCn1nc(CCCOC(=O)c2cc(OC)ccc2F)c2c1C(=O)NCC1(CCOCC1)C2 [Example 37, 3-(1-ethyl-8-oxo-spiro[6,7-dihydro-4H-pyrazolo[3,4-c]azepine-5,4′-tetrahydropyran]-3-yl)propyl 2-fluoro-5-methoxy-benzoate]",< 100
7,"CCn1nc(C[C@@H](C)COC(=O)c2ccc(C)cc2)c2c1C(=O)NCC1(CCOCC1)C2 [Example 140, [(2R)-3-(1-ethyl-8-oxo-spiro[6,7-dihydro-4H-pyrazolo[3,4-c]azepine-5,4′-tetrahydropyran]-3-yl)-2-methyl-propyl] 4-methylbenzoate]",< 100
8,"CCn1nc(CCCCOC(=O)C2CCOCC2)c2c1C(=O)NCC1(CCOCC1)C2 [Example 270, 4-(1-ethyl-8-oxo-spiro[6,7-dihydro-4H-pyrazolo[3,4-c]azepine-5,4′-tetrahydropyran]-3-yl)butyl tetrahydropyran-4-carboxylate]",< 100
9,"CCn1nc(CC(C)(C)COC(=O)c2cccc(C)c2)c2c1C(=O)NCC1(CCOCC1)C2 [Example 190, [3-(1-ethyl-8-oxo-spiro[6,7-dihydro-4H-pyrazolo[3,4-c]azepine-5,4′-tetrahydropyran]-3-yl)-2,2-dimethyl-propyl] 3-methylbenzoate]",< 100
10,"CCn1nc(CCCOC(=O)c2c(F)cccc2Cl)c2c1C(=O)NCC1(CCOCC1)C2 [Example 52, 3-(1-ethyl-8-oxo-spiro[6,7-dihydro-4H-pyrazolo[3,4-c]azepine-5,4′-tetrahydropyran]-3-yl)propyl 2-chloro-6-fluoro-benzoate]",< 100
11,"CCn1nc(CCCOC(=O)C(C)C)c2c1C(=O)NCC1(CCOCC1)C2 [Example 4, 3-(1-ethyl-8-oxo-spiro[6,7-dihydro-4H-pyrazolo[3,4-c]azepine-5,4′-tetrahydropyran]-3-yl)propyl 2-methylpropanoate]",< 100
12,"CCn1nc(C[C@@H](C)COC(=O)c2ccc(OC)cc2)c2c1C(=O)NCC1(CCOCC1)C2 [Example 149, [(2R)-3-(1-ethyl-8-oxo-spiro[6,7-dihydro-4H-pyrazolo[3,4-c]azepine-5,4′-tetrahydropyran]-3-yl)-2-methyl-propyl] 4-methoxybenzoate]",< 100
13,"CCn1nc(C[C@@H](C)COC(=O)c2cccc(S(=O)(=O)C(C)C)c2)c2c1C(=O)NCC1(CCOCC1)C2 [Example 159, [(2R)-3-(1-ethyl-8-oxo-spiro[6,7-dihydro-4H-pyrazolo[3,4-c]azepine-5,4′-tetrahydropyran]-3-yl)-2-methyl-propyl] 3-isopropylsulfonylbenzoate]",< 100
14,"CCn1nc(CCCCOC(=O)c2ccc(C)cc2)c2c1C(=O)NCC1(CCOCC1)C2 [Example 123, 4-(1-ethyl-8-oxo-spiro[6,7-dihydro-4H-pyrazolo[3,4-c]azepine-5,4′-tetrahydropyran]-3-yl)butyl 4-methylbenzoate]",< 100
15,"CCn1nc(CC(C)(C)COC(=O)c2ccc(S(=O)(=O)CC)cc2)c2c1C(=O)NCC1(CCOCC1)C2 [Example 203, [3-(1-ethyl-8-oxo-spiro[6,7-dihydro-4H-pyrazolo[3,4-c]azepine-5,4′-tetrahydropyran]-3-yl)-2,2-dimethyl-propyl] 4-ethylsulfonylbenzoate]",< 100
16,"CCn1nc(CCCOC(=O)c2ccc(Cl)c(OC)c2)c2c1C(=O)NCC1(CCOCC1)C2 [Example 55, 3-(1-ethyl-8-oxo-spiro[6,7-dihydro-4H-pyrazolo[3,4-c]azepine-5,4′-tetrahydropyran]-3-yl)propyl 4-chloro-3-methoxy-benzoate]",< 100
17,"CCn1nc(CCCOC(=O)c2cccc(S(=O)(=O)C(C)C)c2)c2c1C(=O)NCC1(CCOCC1)C2 [Example 92, 3-(1-ethyl-8-oxo-spiro[6,7-dihydro-4H-pyrazolo[3,4-c]azepine-5,4′-tetrahydropyran]-3-yl)propyl 3-isopropylsulfonylbenzoate]",< 100
18,"CCn1nc(CCCOC(=O)C2CCSCC2)c2c1C(=O)NCC1(CCOCC1)C2 [Example 257, 3-(1-ethyl-8-oxo-spiro[6,7-dihydro-4H-pyrazolo[3,4-c]azepine-5,4′-tetrahydro-pyran]-3-yl)propyl tetrahydro-thiopyran-4-carboxylate]",< 100
19,"CCn1nc(CC(C)(C)COC(=O)CCSC)c2c1C(=O)NCC1(CCOCC1)C2 [Example 187, [3-(1-ethyl-8-oxo-spiro[6,7-dihydro-4H-pyrazolo[3,4-c]azepine-5,4′-tetrahydropyran]-3-yl)-2,2-dimethyl-propyl] 3-methylsulfanylpropanoate]",< 100
20,"CCn1nc(CC(C)(C)COC(=O)c2ccc(S(=O)(=O)C3CCCC3)cc2)c2c1C(=O)NCC1(CCOCC1)C2 [Example 209, [3-(1-ethyl-8-oxo-spiro[6,7-dihydro-4H-pyrazolo[3,4-c]azepine-5,4′-tetrahydropyran]-3-yl)-2,2-dimethyl-propyl] 4-cyclopentylsulfonylbenzoate]",< 100
21,"CCn1nc(CCCOC(=O)c2ccc(S(=O)(=O)N(C)C)cc2)c2c1C(=O)NCC1(CCOCC1)C2 [Example 2, 3-(1-Ethyl-8-oxo-spiro[6,7-dihydro-4H-pyrazolo[3,4-c]azepine-5,4′-tetrahydropyran]-3-yl)propyl 4-(dimethylsulfamoyl)benzoate]",< 100
22,"CCn1nc(CCCOC(=O)c2cccc(C(F)(F)F)c2C)c2c1C(=O)NCC1(CCOCC1)C2 [Example 68, 3-(1-ethyl-8-oxo-spiro[6,7-dihydro-4H-pyrazolo[3,4-c]azepine-5,4′-tetrahydro-pyran]-3-yl)propyl 2-methyl-3-(trifluoromethyl)benzoate]",< 100
23,"CCn1nc(CC(C)(C)COC(=O)c2ccccc2OC)c2c1C(=O)NCC1(CCOCC1)C2 [Example 198, [3-(1-ethyl-8-oxo-spiro[6,7-dihydro-4H-pyrazolo[3,4-c]azepine-5,4′-tetrahydropyran]-3-yl)-2,2-dimethyl-propyl] 2-methoxybenzoate]",< 100
24,"CCn1nc(CCCOC(=O)c2cc(F)ccc2C(F)(F)F)c2c1C(=O)NCC1(CCOCC1)C2 [Example 74, 3-(1-ethyl-8-oxo-spiro[6,7-dihydro-4H-pyrazolo[3,4-c]azepine-5,4′-tetrahydro-pyran]-3-yl)propyl 5-fluoro-2-(trifluoromethyl)benzoate]",< 100
25,"CCn1nc(C[C@@H](C)COC(=O)c2cccc(C(=O)N3CCCCC3)c2)c2c1C(=O)NCC1(CCOCC1)C2 [Example 182, [(2R)-3-(1-ethyl-8-oxo-spiro[6,7-dihydro-4H-pyrazolo[3,4-c]azepine-5,4′-tetrahydropyran]-3-yl)-2-methyl-propyl] 3-(piperidine-1-carbonyl)benzoate]",< 100
26,"CCn1nc(CCCOC(=O)c2cn(C)cn2)c2c1C(=O)NCC1(CCOCC1)C2 [Example 239, 3-(1-ethyl-8-oxo-spiro[6,7-dihydro-4H-pyrazolo[3,4-c]azepine-5,4′-tetrahydropyran]-3-yl)propyl 1-methylimidazole-4-carboxylate]",< 100
27,"CCn1nc(CCCCOC(=O)c2ccc(S(=O)(=O)NC)cc2)c2c1C(=O)NCC1(CCOCC1)C2 [Example 131, 4-(1-ethyl-8-oxo-spiro[6,7-dihydro-4H-pyrazolo[3,4-c]azepine-5,4′-tetrahydropyran]-3-yl)butyl 4-(methyl-sulfamoyl)benzoate]",< 100
28,"CCn1nc(CC(C)(C)COC(=O)c2ccc(C)cc2)c2c1C(=O)NCC1(CCOCC1)C2 [Example 188, [3-(1-ethyl-8-oxo-spiro[6,7-dihydro-4H-pyrazolo[3,4-c]azepine-5,4′-tetrahydropyran]-3-yl)-2,2-dimethyl-propyl] 4-methylbenzoate]",< 100
